The source of these data is ChEMBL document CHEMBL1629567, “Pharmacodynamics of cidofovir for vaccinia virus infection in an in vitro hollow-fiber infection model system” (Antimicrob Agents Chemother, 2009).

Each structure is given as a SMILES string. Where only a bound is given, the exact number is not on record here.

Series [1] is described as follows: AUC in cynomolgus monkey with probenecid at 5 mg/kg single dose regimen for 13 days. Type of series: ADME, organism-based, Macaca fascicularis. The arrangement: dose 5 mg/kg. To be noted: plasma.
The nature of series [2]: AUC in cynomolgus monkey with probenecid at 2.5 mg/kg. Type of series: ADME, organism-based, Macaca fascicularis. On the set-up: dose 2.5 mg/kg. To be noted: plasma.
Series [3] in a line: AUC (0 to 24 hrs) in hollow-fiber infection model at 3 uM as continuous infusion. Type of series: ADME. The arrangement: time < 24 hr, dose 3 uM.
Series [4] is described as follows: AUC (0 to 24 hrs) in hollow-fiber infection model at >50 uM as continuous infusion. The arrangement: dose 50 uM, time < 24 hr. Type of series: ADME.
Series [5] is described as follows: AUC in cynomolgus monkey with probenecid at 5 mg/kg six dose regimen for 13 days. Type of series: ADME, organism-based, Macaca fascicularis. On the set-up: dose 5 mg/kg. To be noted: plasma.
The subject of series [6] is Vaccinia virus. Kind of series: Antiviral activity against Vaccinia virus IHD-W ATCC VR-1441 infected in HeLaS3 cells after 3 to 5 days by plaque assay. Type of series: functional, organism-based. To be noted: Orthopoxvirus vaccinia, IHD-W ATCC VR-1441, HeLa S3.
Series [7] in a line: AUC in cynomolgus monkey with probenecid at 5 mg/kg five dose regimen for 13 days. Type of series: ADME, organism-based, Macaca fascicularis. The arrangement: dose 5 mg/kg. To be noted: plasma.
Series [8] concerns Vaccinia virus. Kind of series: Antiviral activity against Vaccinia virus WR infected in cynomolgus monkey with probenecid assessed as decrease in plasma viral titer at 5 dose regimen of 2.5 mg/kg for 13 days. In kind it is functional. To be noted: Orthopoxvirus vaccinia, in Macaca fascicularis, 312 h.
Series [9] relates to Vaccinia virus. Kind of series: Antiviral activity against Vaccinia virus WR infected in cynomolgus monkey with probenecid assessed as decrease in plasma viral titer at 6 dose regimen of 2.5 mg/kg for 13 days. Type of series: functional, Orthopoxvirus vaccinia. The arrangement: scale not given: the % may be the effect or the level left.
For the next series, the system named is Variola major virus. As to the kind of experiment: Antiviral activity against Variola major virus. Type of series: functional.
The nature of series [10]: Antiviral activity against Vaccinia virus IHD-J ATCC VR-156 infected in HeLaS3 cells after 3 to 5 days by plaque assay. Type of series: functional, cell-based. To be noted: ATCC VR-156, HeLa S3.
The nature of series [11]: AUC (0 to infinity) in human at 5 mg/kg administered as single dose. Type of series: ADME, organism-based. To be noted: plasma. On the set-up: time infinity, dose 5 mg/kg.

Take `Nc1ccn(C[C@@H](CO)OCP(=O)(O)O)c(=O)n1.O.O` [CIDOFOVIR]: the AUC (in general, concentration integrated over time) at 312 h came to 103 µM·h in [1], 617 µM·h in [5] and 514 µM·h in series [7]. This compound also showed an AUC in series [2] of 14400 ng·h/mL. Also, the AUC(0-t) (usually the area under the concentration-time curve up to a stated or last time point) at 24 h, 3 µM in series [3] came to 72 µM·h. Moreover, the AUC(0-t) at 24 h, 50 µM in series [4] is above 1200 µM·h. Also, the half-maximal effective concentration (EC50) (commonly the concentration that produces a half-maximal response) in the series on Vaccinia virus [6] is 20.6 µM; in series [10], 18.7 µM. Moreover, in the series with Vaccinia virus [8], the Emax (usually the maximal effect, on the per cent scale that the assay sets) at 2.5 mg/kg turned out to be 30%. Moreover, the Activity with Vaccinia virus [9] is below 10%; in the series on Variola major virus, 6 µM. Moreover, the AUC(0-inf) (as a rule, total exposure, with the tail of the curve extrapolated) in series [11] is 75 µM·h.
